Key:
recombinant DGKα = molecular target: T1, recombinant DGKα (Rattus norvegicus, UniProt P51556); test: Gel-based ATP acyl phosphate chemical proteomic assay; type: binding; conditions: compounds 100 μM (ATP 1 mM; RF001 at indicated concentrations), 30 min; probe 10 μM
T1 construct: expressed in transfected cells; host or cells: HEK293T (SILAC HEK293T for LC-MS)
Method: Cell pellets were resuspended in kinase buffer (Dulbecco's PBS (DPBS, Hyclone), 20 mM MgCl2, EDTA-free protease inhibitors (Pierce)) and then lysed by sonication (3×1 sec pulse, 20% amplitude). The cell lysates were then subjected to centrifugation (100,000×g, 45 min at 4° C.) to isolate the cytosolic fraction in the supernatant and the membrane fraction as a pellet. The membrane pellet was resuspended in kinase buffer by sonication. […] The only exception was experiments involving DGKE; recombinant DGKE protein was most prominently expressed in the membrane fraction and so this fraction was utilized to study DGKE enzyme (see FIG. 8). Protein concentrations were measured using the Bio-Rad DC protein assay. Samples were stored at −80° C. until use.
Proteome concentration was adjusted to 2 mg/mL in kinase buffer. Proteomes were first pre-treated with compound (0.6 μL, 50× stock in DMSO) mixed with gentle flicking, and incubated for 30 min at 25° C. in a microfuge tube (30 μL reaction volume). […] Reactions were then quenched with 10 AL of 4×SDS-PAGE loading buffer. Protein samples (15 μL) were loaded onto 4-20% TGX Stain-Free Protein Midi Gel and resolved by SDS-PAGE at 150V for 55 min. Proteins were then transferred to a nitrocellulose blot by Bio-Rad Trans-Blot Turbo Transfer System (25V. 10 min) to enhance sensitivity. The nitrocellulose blot was then incubated in blocking solution (30 mL, 3% BSA in TBS-T) for 1 h at 25° C. with gentle shaking. The blot was then transferred immediately to antibody solution (30 mL, 5% BSA in ddH2O with 0.1% Tween20 and 1:3000 Streptavidin DyLight 550) and incubated for 2 h at 25° C. with gentle shaking. The blot was then rinsed 5 times for 5 min in TBS-T. and then transferred into ddH2O. The blot was then imaged by in-blot fluorescence scanning on a ChemiDoc MP Imaging System. Fluorescence intensity signals were normalized to total lane protein using the Bio-rad Stain Free imaging (Posch et al., 2013).
The percentage of enzyme activity remaining was determined by comparing integrated band intensities or luminescence of inhibitor—with DMSO-treated samples for gel-based chemical proteomic or ADP-glo assays, respectively. For both chemical proteomic and ADP-glo methods, nonlinear regression analysis was used to determine the IC50 values from a dose-response curve generated using GraphPad Prism. Data are shown as mean±s.e.m. Determination of significance was performed by one-way ANOVA. All statistical analyses were performed using GraphPad Prism.

[1] = molecular target: Alpha (DGK alpha; only in reference sheet cells) (Rattus norvegicus, UniProt P51556); test: DGK isoform % Activity screen; type: biochemical; conditions: for activity at 100 µM: read-out: 100 uM % Activity (section without isoform head; Alpha); for activity at 1000 µM: read-out: 1 mM % Activity (section without isoform head; Alpha)
Zeta (DGK zeta) = Zeta (DGK zeta) (Homo sapiens, UniProt Q13574); test: DGK isoform % Activity screen; type: biochemical; conditions: for activity at 1000 µM: read-out: 1 mM % Activity, Zeta
Gamma (DGK gamma) = Gamma (DGK gamma) (Homo sapiens, UniProt P49619); test: DGK isoform % Activity screen; type: biochemical; conditions: for activity at 1000 µM: read-out: 1 mM % Activity, Gamma
Sequence of Gamma (DGK gamma) (P49619 whole entry, canonical isoform): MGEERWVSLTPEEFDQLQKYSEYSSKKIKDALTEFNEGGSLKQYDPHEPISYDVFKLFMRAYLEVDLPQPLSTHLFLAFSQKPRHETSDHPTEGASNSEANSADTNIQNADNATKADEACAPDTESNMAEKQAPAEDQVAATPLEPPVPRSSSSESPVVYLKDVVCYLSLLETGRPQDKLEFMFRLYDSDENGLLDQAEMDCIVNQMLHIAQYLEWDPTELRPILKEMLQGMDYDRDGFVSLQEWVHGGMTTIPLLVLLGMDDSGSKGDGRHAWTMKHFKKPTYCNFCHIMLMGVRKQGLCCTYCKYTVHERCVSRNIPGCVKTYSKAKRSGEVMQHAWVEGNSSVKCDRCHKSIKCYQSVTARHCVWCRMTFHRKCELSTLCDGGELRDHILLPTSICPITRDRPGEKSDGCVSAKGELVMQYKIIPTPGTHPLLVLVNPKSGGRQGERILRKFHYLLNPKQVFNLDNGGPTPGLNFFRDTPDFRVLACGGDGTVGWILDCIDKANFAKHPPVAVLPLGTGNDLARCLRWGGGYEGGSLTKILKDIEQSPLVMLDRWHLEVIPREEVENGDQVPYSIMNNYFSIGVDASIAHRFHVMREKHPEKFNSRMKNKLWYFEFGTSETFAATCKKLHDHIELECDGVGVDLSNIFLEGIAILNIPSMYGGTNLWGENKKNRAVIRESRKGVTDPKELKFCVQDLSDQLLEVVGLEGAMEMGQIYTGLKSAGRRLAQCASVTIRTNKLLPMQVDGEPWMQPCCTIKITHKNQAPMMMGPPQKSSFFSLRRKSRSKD

Sequence of Zeta (DGK zeta) (Q13574 whole entry, canonical isoform): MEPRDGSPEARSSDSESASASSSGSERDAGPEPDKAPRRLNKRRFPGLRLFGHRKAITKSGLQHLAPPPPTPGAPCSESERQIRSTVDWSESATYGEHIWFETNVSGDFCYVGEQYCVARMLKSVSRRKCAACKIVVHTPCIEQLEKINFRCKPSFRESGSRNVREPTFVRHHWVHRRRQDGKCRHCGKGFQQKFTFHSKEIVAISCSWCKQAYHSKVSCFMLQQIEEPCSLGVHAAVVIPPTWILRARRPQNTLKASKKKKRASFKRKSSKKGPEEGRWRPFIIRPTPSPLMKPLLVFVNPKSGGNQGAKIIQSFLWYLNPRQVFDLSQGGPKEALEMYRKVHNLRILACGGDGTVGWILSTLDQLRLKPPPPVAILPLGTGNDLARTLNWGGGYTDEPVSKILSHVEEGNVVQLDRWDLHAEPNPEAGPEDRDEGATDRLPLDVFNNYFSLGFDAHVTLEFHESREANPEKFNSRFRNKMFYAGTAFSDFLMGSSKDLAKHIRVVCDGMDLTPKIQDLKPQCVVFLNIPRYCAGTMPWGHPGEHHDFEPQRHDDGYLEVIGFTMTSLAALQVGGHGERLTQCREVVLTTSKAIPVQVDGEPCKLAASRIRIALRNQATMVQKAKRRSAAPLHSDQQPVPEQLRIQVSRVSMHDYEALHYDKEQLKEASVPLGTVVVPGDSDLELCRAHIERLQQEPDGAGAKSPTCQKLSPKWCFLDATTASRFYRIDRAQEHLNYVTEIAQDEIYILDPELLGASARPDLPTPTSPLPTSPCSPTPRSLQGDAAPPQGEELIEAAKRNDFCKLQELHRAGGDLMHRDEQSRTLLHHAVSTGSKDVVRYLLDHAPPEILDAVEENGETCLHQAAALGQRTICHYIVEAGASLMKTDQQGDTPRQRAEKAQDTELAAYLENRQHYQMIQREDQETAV
Sequence of Alpha (DGK alpha; only in reference sheet cells) (P51556 whole entry, canonical isoform): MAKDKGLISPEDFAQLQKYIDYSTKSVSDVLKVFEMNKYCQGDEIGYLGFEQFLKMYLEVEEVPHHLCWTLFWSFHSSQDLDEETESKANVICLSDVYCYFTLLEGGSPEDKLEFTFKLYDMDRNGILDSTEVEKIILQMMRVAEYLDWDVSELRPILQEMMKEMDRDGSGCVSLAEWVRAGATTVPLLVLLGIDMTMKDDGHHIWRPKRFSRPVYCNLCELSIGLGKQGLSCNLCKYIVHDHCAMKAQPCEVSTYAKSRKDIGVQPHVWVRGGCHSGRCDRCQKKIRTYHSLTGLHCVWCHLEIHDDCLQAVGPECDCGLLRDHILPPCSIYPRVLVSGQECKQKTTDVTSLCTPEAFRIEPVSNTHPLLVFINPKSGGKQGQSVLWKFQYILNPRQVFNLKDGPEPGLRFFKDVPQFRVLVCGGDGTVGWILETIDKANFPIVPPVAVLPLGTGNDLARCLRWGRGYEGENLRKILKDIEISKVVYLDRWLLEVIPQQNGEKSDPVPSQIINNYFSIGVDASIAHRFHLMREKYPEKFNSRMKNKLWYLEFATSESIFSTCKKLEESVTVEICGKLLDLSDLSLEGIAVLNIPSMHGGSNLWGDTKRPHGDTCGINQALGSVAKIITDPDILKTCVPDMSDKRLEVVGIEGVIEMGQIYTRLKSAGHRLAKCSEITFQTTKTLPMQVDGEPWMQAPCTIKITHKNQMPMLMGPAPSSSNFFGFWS
T1 sequence (P51556 whole entry): as the sequence (P51556 whole entry, canonical isoform) above

SMILES	blockade of DGKα ATP probe labeling (recombinant DGKα)	activity at 100 µM [1] [%]	activity at 1000 µM [1] [%]	activity at 100 µM (Zeta (DGK zeta)) [%]	activity at 1000 µM (Zeta (DGK zeta)) [%]	activity at 100 µM (Gamma (DGK gamma)) [%]	activity at 1000 µM (Gamma (DGK gamma)) [%]
Cc1nc2sccn2c(=O)c1CCN1CCC(=C(c2ccccc2)c2ccc(F)cc2)CC1 [R59022]	blocked DGKα probe labeling	–	–	–	–	–	–
O=c1c2ccccc2[nH]c(=S)n1CCN1CCC(=C(c2ccc(F)cc2)c2ccc(F)cc2)CC1 [R59949]	blocked DGKα probe labeling	–	–	–	–	–	–
Fc1ccc(C(c2ccc(F)cc2)N2CCNCC2)cc1 [TH001]	–	72	0	102	0	99	0
c1ccc2c(c1)-c1ccccc1C2N1CCNCC1 [TH002]	–	84	0	98	0	–	–
CN1C2CCC1CC(OC(c1ccccc1)c1ccccc1)C2 (stereo not drawn) [TH004]	–	–	–	82	21	–	–
CN(C)CCOc1ccc(/C(=C(/CCCl)c2ccccc2)c2ccccc2)cc1 [TH005]	–	103	14	86	0	–	–
Fc1ccc(C(c2ccc(F)cc2)C2CCNCC2)cc1 [TH010]	–	–	64	96	30	–	–
c1ccc(C(=C2CCNCC2)c2ccccc2)cc1 [TH011]	–	78	0	96	0	–	–
c1ccc(C(c2ccccc2)C2CCNCC2)cc1 [TH012]	–	–	41	99	15	–	–
Fc1ccc(C(=C2CCCN(Cc3ccccc3)C2)c2ccc(F)cc2)cc1 [TH014]	–	–	160	140	327	–	–
CC(=O)N1CCN(C(c2ccc(F)cc2)c2ccc(F)cc2)CC1 [TH016]	–	–	139	98	108	–	–
Cc1ccc(C(=C2CCNCC2)c2ccc(C)cc2)cc1 [TH019]	–	92	1	103	0	–	–
Fc1ccc(C(c2ccc(F)cc2)N2CCN(Cc3ccc4ccccc4n3)CC2)cc1 [TH022]	–	103	60	135	193	–	–
Fc1ccc(C(c2ccc(F)cc2)N2CCN(C3CCNCC3)CC2)cc1 [TH024]	–	84	3	72	0	–	–
COc1ccc(C(=C2CCNCC2)c2ccc(OC)cc2)cc1 [TH025]	–	79	4.4	103	0	–	–
OC(c1ccc(F)cc1)(c1ccc(F)cc1)C1CCNCC1 [TH028]	–	96	0	125	0	–	–
Fc1ccc(C(=C2CCN(Cc3ccc4ccccc4n3)CC2)c2ccc(F)cc2)cc1 [TH029]	–	125	73	169	252	–	–
OCCN1CCN(C(c2ccc(F)cc2)c2ccc(F)cc2)CC1 [TH030]	–	103	36	91	5	–	–
OCCCN1CCN(C(c2ccc(F)cc2)c2ccc(F)cc2)CC1 [TH031]	–	107	26	105	0	–	–
Fc1ccc(C(c2ccc(F)cc2)N2CCN(CCCN3CCCC3)CC2)cc1 [TH032]	–	94	8	80	0	–	–
Fc1ccc(C(c2ccc(F)cc2)N2CCN(CCCN3CCN(C(c4ccc(F)cc4)c4ccc(F)cc4)CC3)CC2)cc1 [TH033]	–	72	4	82	–	–	–
CS(=O)(=O)N1CCC(=C(c2ccc(F)cc2)c2ccc(F)cc2)CC1 [TH035]	–	88	40	112	100	–	–
CS(=O)(=O)N1CCN(C(c2ccc(F)cc2)c2ccc(F)cc2)CC1 [TH036]	–	93	74	108	105	–	–
OC(c1ccc(C(F)(F)F)cc1)(c1ccc(C(F)(F)F)cc1)C1CCNCC1 [TH039]	–	81	6	94	1	91	1
Clc1ccc(C(=C2CCNCC2)c2ccc(Cl)cc2)cc1 [TH040]	–	78	4	85	0	101	5
